# Measurements reported in PubChem BioAssay AID248 (DTP/NCI, 2004).
# “And” between values parts separate entries of the source, which are not always exact repeats. Equal values may be shown once. Inconclusive results and toxic doses are left out.
# Test system: L1210 leukemia ip in BDF1 mice, survival T/C
# Assay: NCI In Vivo Anticancer Drug Screen. Data for tumor model L1210 Leukemia (intraperitoneal) in B6D2F1 (BDF1) mice
# Settings: endpoint: mean survival time, higher = longer survival
# How it was run: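 Transplantable tumor model; survival measured in treated vs vehicle control mice. Value = treated/control.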
# [1] = dose: 100.0 mg/kg/injection, schedule: Q04DX003 (ip), vehicle: saline with Tween-80
# [2] = dose: 200.0 mg/kg/injection, schedule: Q04DX003 (ip), vehicle: saline with Tween-80
# [3] = dose: 100.0 mg/kg/injection, schedule: Q04DX003 (ip), vehicle: Klucel (hydroxypropylcellulose) (HPC)
# [4] = dose: 200.0 mg/kg/injection, schedule: Q04DX003 (ip), vehicle: Klucel (hydroxypropylcellulose) (HPC)
# [5] = dose: 50.0 mg/kg/injection, schedule: Q01DX009 (ip), vehicle: saline with Tween-80
# [6] = dose: 400.0 mg/kg/injection, schedule: Q04DX003 (ip), vehicle: saline with Tween-80
# [7] = dose: 100.0 mg/kg/injection, schedule: Q01DX009 (ip), vehicle: saline with Tween-80
# [8] = dose: 100.0 mg/kg/injection, schedule: Q04DX003 (ip), vehicle: saline
# [9] = dose: 200.0 mg/kg/injection, schedule: Q01DX009 (ip), vehicle: saline with Tween-80
# [10] = dose: 400.0 mg/kg/injection, schedule: Q01DX009 (ip), vehicle: saline with Tween-80
# [11] = dose: 100.0 mg/kg/injection, schedule: Q01DX001 (ip), vehicle: saline
compound,measurement,setting,value
CN(C(=O)N(C)S(=O)(=O)c1ccccc1)S(=O)(=O)c1ccccc1,T/C,"dose: 75.0 mg/kg/injection, schedule: Q04DX003 (ip), vehicle: Klucel (hydroxypropylcellulose) (HPC)",100 % of control
same,T/C,"dose: 150.0 mg/kg/injection, schedule: Q04DX003 (ip), vehicle: Klucel (hydroxypropylcellulose) (HPC)",101 % of control
same,T/C,"dose: 300.0 mg/kg/injection, schedule: Q04DX003 (ip), vehicle: Klucel (hydroxypropylcellulose) (HPC)",94 % of control
O=C(O)CS(=O)(=O)Cc1ccccc1,T/C,[1],97 % of control
same,T/C,[2],90 % of control
O=C1C2C3CCC(O3)C2C(=O)N1N1C(=O)C2C3CCC(O3)C2C1=O (centres undefined),T/C,"dose: 100.0 mg/kg/injection, schedule: Q01DX009 (ip), vehicle: carboxymethylcellulose (CMC)",102 % of control
same,T/C,"dose: 100.0 mg/kg/injection, schedule: Q04DX003 (ip), vehicle: carboxymethylcellulose (CMC)",110 % of control
same,T/C,"dose: 200.0 mg/kg/injection, schedule: Q01DX009 (ip), vehicle: carboxymethylcellulose (CMC)",97 % of control
same,T/C,"dose: 200.0 mg/kg/injection, schedule: Q04DX003 (ip), vehicle: carboxymethylcellulose (CMC)",111 % of control
same,T/C,"dose: 400.0 mg/kg/injection, schedule: Q01DX009 (ip), vehicle: carboxymethylcellulose (CMC)",87 % of control
same,T/C,"dose: 400.0 mg/kg/injection, schedule: Q04DX003 (ip), vehicle: carboxymethylcellulose (CMC)",101 % of control
CCCCCCCCCCCCCCCCOc1ccc(C(=O)O)cc1NC(=O)CC(C)=O,T/C,[3],92 % of control
same,T/C,[4],95 % of control
same,T/C,"dose: 400.0 mg/kg/injection, schedule: Q04DX003 (ip), vehicle: Klucel (hydroxypropylcellulose) (HPC)",92 % of control
Oc1cccc2ccc(Cl)nc12,T/C,"dose: 75.0 mg/kg/injection, schedule: Q01DX001 (ip), vehicle: carboxymethylcellulose (CMC)",97 % of control
same,T/C,"dose: 150.0 mg/kg/injection, schedule: Q01DX001 (ip), vehicle: carboxymethylcellulose (CMC)",101 % of control
same,T/C,"dose: 300.0 mg/kg/injection, schedule: Q01DX001 (ip), vehicle: carboxymethylcellulose (CMC)",97 % of control
CSc1nc(Cl)nc(C(Cl)Cl)c1Cl,T/C,"dose: 12.5 mg/kg/injection, schedule: Q01DX009 (ip), vehicle: other",93 % of control
same,T/C,"dose: 25.0 mg/kg/injection, schedule: Q01DX009 (ip), vehicle: other",107 % of control
same,T/C,"dose: 50.0 mg/kg/injection, schedule: Q01DX009 (ip), vehicle: other",89 % of control and 90 % of control
C=CCCCCCCCCC(N)=O,T/C,"dose: 25.0 mg/kg/injection, schedule: Q01DX009 (ip), vehicle: saline with Tween-80",108 % of control
same,T/C,[5],96 % of control
same,T/C,[1],101 % of control
same,T/C,[2],95 % of control
same,T/C,[6],184 % of control
CC1C(=O)CCC2(C)CCC(C)(C)CC12 (centres undefined),T/C,[7],98 % of control
same,T/C,[8],105 % of control
same,T/C,[9],95 % of control
same,T/C,"dose: 200.0 mg/kg/injection, schedule: Q04DX003 (ip), vehicle: saline",97 % of control
same,T/C,[10],101 % of control
same,T/C,"dose: 400.0 mg/kg/injection, schedule: Q04DX003 (ip), vehicle: saline",103 % of control
CCCCCCCCCCCC(=O)OCCOCCOCCOCCOCCOCCOCCOCCOCCO,T/C,[11],104 % of control
same,T/C,"dose: 200.0 mg/kg/injection, schedule: Q01DX001 (ip), vehicle: saline",98 % of control
same,T/C,"dose: 400.0 mg/kg/injection, schedule: Q01DX001 (ip), vehicle: saline",98 % of control
COC1OC2COC(C)(C)OC2C1OS(=O)(=O)c1ccc(C)cc1 (centres undefined),T/C,"dose: 100.0 mg/kg/injection, schedule: Q01DX001 (ip), vehicle: carboxymethylcellulose (CMC)",104 % of control
same,T/C,"dose: 200.0 mg/kg/injection, schedule: Q01DX001 (ip), vehicle: carboxymethylcellulose (CMC)",96 % of control
same,T/C,"dose: 400.0 mg/kg/injection, schedule: Q01DX001 (ip), vehicle: carboxymethylcellulose (CMC)",107 % of control
CC(C)(C)c1ccc(S(=O)(=O)c2ccc(C(C)(C)C)c([N+](=O)[O-])c2)cc1[N+](=O)[O-],T/C,"dose: 100.0 mg/kg/injection, schedule: Q04DX002 (ip), vehicle: Klucel (hydroxypropylcellulose) (HPC)",101 % of control
same,T/C,"dose: 200.0 mg/kg/injection, schedule: Q04DX002 (ip), vehicle: Klucel (hydroxypropylcellulose) (HPC)",92 % of control
same,T/C,"dose: 400.0 mg/kg/injection, schedule: Q04DX002 (ip), vehicle: Klucel (hydroxypropylcellulose) (HPC)",105 % of control
CCOC(=O)CNC(=O)C1OC(n2cnc3c(N)ncnc32)C(O)C1O (centres undefined),T/C,"dose: 6.25 mg/kg/injection, schedule: Q01DX009 (ip), vehicle: saline",105 % of control
same,T/C,"dose: 12.5 mg/kg/injection, schedule: Q01DX005 (ip), vehicle: saline",102 % of control
same,T/C,"dose: 12.5 mg/kg/injection, schedule: Q01DX009 (ip), vehicle: saline",110 % of control
same,T/C,"dose: 25.0 mg/kg/injection, schedule: Q01DX005 (ip), vehicle: saline",114 % of control
C/C=N\O,T/C,"dose: 25.0 mg/kg/injection, schedule: Q01DX001 (ip), vehicle: saline",112 % of control
same,T/C,"dose: 50.0 mg/kg/injection, schedule: Q01DX001 (ip), vehicle: saline",102 % of control
same,T/C,[11],102 % of control
S=C1CCNCC1,T/C,[8],88 % of control
COc1ccc(/C=C/c2cnnc3ccccc23)cc1OC,T/C,"dose: 100.0 mg/kg/injection, schedule: Q01DX001 (ip), vehicle: Klucel (hydroxypropylcellulose) (HPC)",113 % of control
same,T/C,"dose: 200.0 mg/kg/injection, schedule: Q01DX001 (ip), vehicle: Klucel (hydroxypropylcellulose) (HPC)",98 % of control
COc1ccc(C(CC(=O)c2ccc3c(c2)OCO3)c2c(O)c3ccccc3oc2=O)cc1OC (centres undefined),T/C,[5],96 % of control
same,T/C,[7],96 % of control
same,T/C,[1],94 % of control
same,T/C,[9],91 % of control
same,T/C,[2],89 % of control
same,T/C,[6],88 % of control
COc1ccc(Cl)cc1NC(=O)Nc1cc(C)ccn1,T/C,"dose: 100.0 mg/kg/injection, schedule: Q01DX009 (ip), vehicle: Klucel (hydroxypropylcellulose) (HPC)",104 % of control
same,T/C,"dose: 200.0 mg/kg/injection, schedule: Q01DX009 (ip), vehicle: Klucel (hydroxypropylcellulose) (HPC)",100 % of control
same,T/C,"dose: 400.0 mg/kg/injection, schedule: Q01DX009 (ip), vehicle: Klucel (hydroxypropylcellulose) (HPC)",88 % of control
Cc1ccc(N=C=Nc2ccc(C)cc2)cc1,T/C,"dose: 25.0 mg/kg/injection, schedule: Q04DX003 (ip), vehicle: Klucel (hydroxypropylcellulose) (HPC)",105 % of control
same,T/C,"dose: 50.0 mg/kg/injection, schedule: Q04DX003 (ip), vehicle: Klucel (hydroxypropylcellulose) (HPC)",97 % of control
same,T/C,[3],90 % of control
COc1cc(/C=C2\CCC/C(=C\c3ccc(O)c(OC)c3)C2=O)ccc1O,T/C,[3],93 % of control
same,T/C,[4],87 % of control
O=C(O)c1cccc2cccc(-c3c4ccc(=O)c(O)c-4oc4c(O)c(O)ccc34)c12,T/C,[1],91 % of control
same,T/C,[2],92 % of control
same,T/C,[6],89 % of control
COC(=O)c1ccc2oc(=O)cc(C)c2c1O,T/C,[7],95 % of control
same,T/C,[1],93 % of control
same,T/C,[9],100 % of control
same,T/C,[2],95 % of control
same,T/C,[10],94 % of control
same,T/C,[6],93 % of control
CC(=O)OCCC(CCOC(C)=O)=C1N=C(c2ccccc2)OC1=O,T/C,"dose: 100.0 mg/kg/injection, schedule: Q01DX009 (ip), vehicle: saline",97 % of control
same,T/C,"dose: 100.0 mg/kg/injection, schedule: Q04DX003 (ip), vehicle: other",101 % of control
same,T/C,"dose: 200.0 mg/kg/injection, schedule: Q01DX009 (ip), vehicle: saline",105 % of control
same,T/C,"dose: 200.0 mg/kg/injection, schedule: Q04DX003 (ip), vehicle: other",104 % of control
same,T/C,"dose: 400.0 mg/kg/injection, schedule: Q01DX009 (ip), vehicle: saline",92 % of control
same,T/C,"dose: 400.0 mg/kg/injection, schedule: Q04DX003 (ip), vehicle: other",101 % of control
O=[N+]([O-])c1cc([N+](=O)[O-])c(Cl)cc1Cl,T/C,"dose: 3.13 mg/kg/injection, schedule: Q01DX009 (ip), vehicle: Klucel (hydroxypropylcellulose) (HPC)",101 % of control
same,T/C,"dose: 6.25 mg/kg/injection, schedule: Q01DX009 (ip), vehicle: Klucel (hydroxypropylcellulose) (HPC)",106 % of control
same,T/C,"dose: 12.5 mg/kg/injection, schedule: Q01DX009 (ip), vehicle: Klucel (hydroxypropylcellulose) (HPC)",106 % of control
same,T/C,[3],96 % of control
same,T/C,[4],89 % of control
CCCCCCCCCCCCCCCCCCCCCCOC(=O)CCC(=O)OCCCCCCCCCCCCCCCCCCCCCC,T/C,"dose: 100.0 mg/kg/injection, schedule: Q01DX009 (ip), vehicle: gum acacia",86 % of control
same,T/C,"dose: 100.0 mg/kg/injection, schedule: Q04DX003 (ip), vehicle: gum acacia",95 % of control
same,T/C,"dose: 200.0 mg/kg/injection, schedule: Q01DX009 (ip), vehicle: gum acacia",86 % of control
same,T/C,"dose: 200.0 mg/kg/injection, schedule: Q04DX003 (ip), vehicle: gum acacia",92 % of control
same,T/C,"dose: 400.0 mg/kg/injection, schedule: Q04DX003 (ip), vehicle: gum acacia",92 % of control
